Measured values published in patent US20240182945A1, “PRODUCTS FOR REGULATION OF EUKARYOTIC AND MICROBIAL CELLS GROWTH” (priority 2021, published 2024).

How the values were obtained:
R. dentocariosa = test: Growth of microbial modulator alone on antibiotic-supplemented Columbia agar; format: cell-based; settings: Bacterial set #2; Cefepime (16 μg/mL); Columbia agar with erythrocytes 5%, 24 h at 37 C
[1] = system: S.aureus (PP) and MM in sputum from children with pneumonia; test: Degree of eradication of PP and MM on Columbia agar with antibiotic at concentrations achievable at the site of infection; format: cell-based; parameters: key to Degree of primary pathogen eradication, evaluation of ABEPP: % of primary pathogen (PP) eliminated
Experimental: We next tried to select antibiotics based on building a probability model. Antibiotic efficacy was evaluated based on a novel parameters: • ABEPPMM100—antibiotic concentration that is required for the elimination of 100% “complex” PP+MM. • ABEPPMM99—antibiotic concentration that is required for the elimination of 99% “complex” PP+MM.
ABEPPMM90—antibiotic concentration that is required for the elimination of 90% “complex” PP+MM.
ABEPPMM50—antibiotic concentration that is required for the elimination of 50% “complex” PP+MM.
ABEPP100—antibiotic concentration that affecting on “complex” PP+MM is required for the elimination of 100% PP.
ABEPP99—antibiotic concentration that affecting on “complex” PP+MM is required for the elimination of 99% PP.
ABEPP90—antibiotic concentration that affecting on “complex” PP+MM is required for the elimination of 90% PP.
ABEPP50—antibiotic concentration that affecting on “complex” PP+MM is required for the elimination of 50% PP.
We used sputum from children with pneumonia, with S.aureus as confirmed PP. Patient 1—child • Patient 2—child • Patient 3—child

P. aeruginosa = test: Growth of primary pathogen alone on antibiotic-supplemented Columbia agar; format: cell-based; settings: Columbia agar with erythrocytes 5%, 24 h at 37 C
Experimental: Four sputum samples from patients with lung infections were used. Pure bacterial culture of each microorganisms was obtained by routine microbiological methods.
In this case this antibiotic at MIC of 16 ug/mL was used in the following studies. PP alone, or Microbial Modulators (MM) alone or the original sputum were plated on the wells of 24 well plate filled with nutrient Columbia agar supplemented with erythrocytes 5% and supplemented with antibiotics taken as MIC determined against PP, but not more than 16 μg/mL and incubated 24 h at 37 C.

A. ursingii = test: Growth of microbial modulator alone on antibiotic-supplemented Columbia agar; format: cell-based; settings: Bacterial set #2; Cefepime (16 μg/mL); Columbia agar with erythrocytes 5%, 24 h at 37 C
[2] = system: MIX—PP +BM (P. aeruginosa with microbial modulators); test: Growth of mix PP + MM (original sputum) on antibiotic-supplemented Columbia agar; format: cell-based; settings: Columbia agar with erythrocytes 5%, 24 h at 37 C
[3] = cited from earlier work
[4] = system: bacteria of the biosample (persisters); test: Neutropenic mice instilled with biosample and treated with antibiotic for 72 h, microbial growth in organs and blood; format: in vivo; settings: neutropenic C57BL/6 mice treated for 72 h, agar with 100 ug/mL of the antibiotic
Experimental: Next, we confirmed that antibiotics selected with proposed algorithm are effective. Adult C57BL/6 mice were rendered neutropenic by injecting cyclophosphamide subcutaneously 4 days before infection (150 mg/kg of body weight), 1 day before infection (100 mg/kg), and 1 day after infection (100 mg/kg). Mice were anesthetized with 2% isoflurane and orally instilled with biosample (stored at +4 C). Briefly, nares were blocked, and mice aspirated 50 μL of the biosample into the lungs while being held vertically for 60 s.

B. pumilus = test: Growth of microbial modulator alone on antibiotic-supplemented Columbia agar; format: cell-based; settings: Bacterial set #2; Cefepime (16 μg/mL); Columbia agar with erythrocytes 5%, 24 h at 37 C
[5] = system: bacteria of sputum from patients with lung diseases; test: Standard antibiotic susceptibility study using the microbroth dilution method (Algorithm #3); format: cell-based; further: key: '+'—presence of bacterial growth, antibiotic ineffective; '−'—absence of bacterial growth, antibiotic effective
Source text: Algorithm #3—Standard antibiotic susceptibility study using the microbroth dilution method.

B. sonorensis = test: Growth of microbial modulator alone on antibiotic-supplemented Columbia agar; format: cell-based; settings: Bacterial set #1; Meropenem (16 μg/mL); Columbia agar with erythrocytes 5%, 24 h at 37 C
S. anginosus = test: as above; format: cell-based; settings: Bacterial set #1; Meropenem (16 μg/mL); Columbia agar with erythrocytes 5%, 24 h at 37 C
E. coli = test: as above; format: cell-based; settings: Bacterial set #1; Meropenem (16 μg/mL); Columbia agar with erythrocytes 5%, 24 h at 37 C
[6] = Patient 1, C0-1 h, 24 h of growth
[7] = Patient 1, C0-2 h, 24 h of growth
[8] = Patient 1, C0-3 h, 24 h of growth
[9] = Patient 1, C0-4 h, 24 h of growth
[10] = Patient 1, C0-6 h, 24 h of growth
[11] = Patient 1, C0-8 h, 24 h of growth
[12] = Patient 1, C0-12 h, 24 h of growth
[13] = Patient 1, C0-24 h, 24 h of growth
[14] = Patient 1, C2-3 h, 24 h of growth
[15] = Patient 1, C3-4 h, 24 h of growth
[16] = Patient 1, C4-6 h, 24 h of growth
[17] = Patient 1, C6-8 h, 24 h of growth
[18] = Patient 1, C8-12 h, 24 h of growth
[19] = Patient 1, C12-24 h, 24 h of growth
[20] = Patient 1, Cmax × 2, 24 h of growth
[21] = Patient 2, C0-3 h, 24 h of growth
[22] = Patient 2, C0-4 h, 24 h of growth
[23] = Patient 2, C0-6 h, 24 h of growth
[24] = Patient 2, C0-8 h, 24 h of growth
[25] = Patient 2, C0-12 h, 24 h of growth
[26] = Patient 2, C0-24 h, 24 h of growth
[27] = Patient 2, C3-4 h, 24 h of growth
[28] = Patient 2, C4-6 h, 24 h of growth
[29] = Patient 2, C6-8 h, 24 h of growth
[30] = Patient 2, C8-12 h, 24 h of growth
[31] = Patient 2, C12-24 h, 24 h of growth
[32] = Patient 3, C0-3 h, 24 h of growth
[33] = Patient 3, C0-4 h, 24 h of growth
[34] = Patient 3, C0-6 h, 24 h of growth
[35] = Patient 3, C0-8 h, 24 h of growth
[36] = Patient 3, C0-12 h, 24 h of growth
[37] = Patient 3, C0-24 h, 24 h of growth
[38] = Patient 3, C3-4 h, 24 h of growth
[39] = Patient 3, C4-6 h, 24 h of growth
[40] = Patient 3, C6-8 h, 24 h of growth
[41] = Patient 3, C8-12 h, 24 h of growth
[42] = Patient 3, C12-24 h, 24 h of growth
[43] = Bacterial set #2, Cefepime (16 μg/mL)
[44] = Bacterial set #1, Meropenem (16 μg/mL)

CO/N=C(\C(=O)N[C@@H]1C(=O)N2C(C(=O)[O-])=C(C[N+]3(C)CCCC3)CS[C@H]12)c1csc(N)n1 [Cefepime]
3/8: Number of animals with positive microbial growth on the agar with antibiotics/total number of animals per group ([4]; Lungs)
4/8: Number of animals with positive microbial growth on the agar with antibiotics/total number of animals per group ([4]; Blood)
90: Degree of primary pathogen eradication, evaluation of ABEPP [1, 21] | Degree of primary pathogen eradication, evaluation of ABEPPMM [1, 21] | Degree of primary pathogen eradication, evaluation of ABEPP [1, 32] | Degree of primary pathogen eradication, evaluation of ABEPPMM [1, 32] | Degree of primary pathogen eradication, evaluation of ABEPP [1, 33] | Degree of primary pathogen eradication, evaluation of ABEPPMM [1, 33] | Degree of primary pathogen eradication, evaluation of ABEPP [1, 34] | Degree of primary pathogen eradication, evaluation of ABEPPMM [1, 34] | Degree of primary pathogen eradication, evaluation of ABEPP [1, 38] | Degree of primary pathogen eradication, evaluation of ABEPPMM [1, 38] | Degree of primary pathogen eradication, evaluation of ABEPP [1, 39] | Degree of primary pathogen eradication, evaluation of ABEPPMM [1, 39]
8 µg/mL: lung concentration after 12 h of administration ([3]; 12 h)
00: Degree of primary pathogen eradication, evaluation of ABEPP [1, 12] | Degree of primary pathogen eradication, evaluation of ABEPPMM [1, 12] | Degree of primary pathogen eradication, evaluation of ABEPPMM [1, 18] | Degree of primary pathogen eradication, evaluation of ABEPP [1, 19] | Degree of primary pathogen eradication, evaluation of ABEPPMM [1, 19]
23 µg/mL: lung concentration after 8 h of administration ([3]; 8 h)
−: microbial growth, RD (BM alone) (R. dentocariosa) | microbial growth, MIX (PP + MM) [2, 43]
0: Degree of primary pathogen eradication, evaluation of ABEPP [1, 13] | Degree of primary pathogen eradication, evaluation of ABEPPMM [1, 13] | Degree of primary pathogen eradication, evaluation of ABEPP [1, 26] | Degree of primary pathogen eradication, evaluation of ABEPPMM [1, 26] | Degree of primary pathogen eradication, evaluation of ABEPP [1, 31] | Degree of primary pathogen eradication, evaluation of ABEPPMM [1, 31] | Degree of primary pathogen eradication, evaluation of ABEPP [1, 35] | Degree of primary pathogen eradication, evaluation of ABEPPMM [1, 35] | Degree of primary pathogen eradication, evaluation of ABEPP [1, 36] | Degree of primary pathogen eradication, evaluation of ABEPPMM [1, 36] | Degree of primary pathogen eradication, evaluation of ABEPP [1, 37] | Degree of primary pathogen eradication, evaluation of ABEPPMM [1, 37] | Degree of primary pathogen eradication, evaluation of ABEPP [1, 40] | Degree of primary pathogen eradication, evaluation of ABEPPMM [1, 40] | Degree of primary pathogen eradication, evaluation of ABEPP [1, 41] | Degree of primary pathogen eradication, evaluation of ABEPPMM [1, 41] | Degree of primary pathogen eradication, evaluation of ABEPP [1, 42] | Degree of primary pathogen eradication, evaluation of ABEPPMM [1, 42]
100: Degree of primary pathogen eradication, evaluation of ABEPP [1, 6] | Degree of primary pathogen eradication, evaluation of ABEPPMM [1, 6] | Degree of primary pathogen eradication, evaluation of ABEPP [1, 7] | Degree of primary pathogen eradication, evaluation of ABEPPMM [1, 7] | Degree of primary pathogen eradication, evaluation of ABEPP [1, 8] | Degree of primary pathogen eradication, evaluation of ABEPPMM [1, 8] | Degree of primary pathogen eradication, evaluation of ABEPP [1, 9] | Degree of primary pathogen eradication, evaluation of ABEPPMM [1, 9] | Degree of primary pathogen eradication, evaluation of ABEPP [1, 10] | Degree of primary pathogen eradication, evaluation of ABEPPMM [1, 10] | Degree of primary pathogen eradication, evaluation of ABEPP [1, 14] | Degree of primary pathogen eradication, evaluation of ABEPPMM [1, 14] | Degree of primary pathogen eradication, evaluation of ABEPP [1, 15] | Degree of primary pathogen eradication, evaluation of ABEPPMM [1, 15] | Degree of primary pathogen eradication, evaluation of ABEPP [1, 16] | Degree of primary pathogen eradication, evaluation of ABEPPMM [1, 16] | Degree of primary pathogen eradication, evaluation of ABEPP [1, 17] | Degree of primary pathogen eradication, evaluation of ABEPPMM [1, 17] | Degree of primary pathogen eradication, evaluation of ABEPP [1, 20] | Degree of primary pathogen eradication, evaluation of ABEPPMM [1, 20]
50: Degree of primary pathogen eradication, evaluation of ABEPP [1, 11] | Degree of primary pathogen eradication, evaluation of ABEPPMM [1, 11] | Degree of primary pathogen eradication, evaluation of ABEPP [1, 18] | Degree of primary pathogen eradication, evaluation of ABEPP [1, 22] | Degree of primary pathogen eradication, evaluation of ABEPPMM [1, 22] | Degree of primary pathogen eradication, evaluation of ABEPP [1, 23] | Degree of primary pathogen eradication, evaluation of ABEPPMM [1, 23] | Degree of primary pathogen eradication, evaluation of ABEPP [1, 24] | Degree of primary pathogen eradication, evaluation of ABEPPMM [1, 24] | Degree of primary pathogen eradication, evaluation of ABEPP [1, 25] | Degree of primary pathogen eradication, evaluation of ABEPPMM [1, 25] | Degree of primary pathogen eradication, evaluation of ABEPP [1, 27] | Degree of primary pathogen eradication, evaluation of ABEPPMM [1, 27] | Degree of primary pathogen eradication, evaluation of ABEPP [1, 28] | Degree of primary pathogen eradication, evaluation of ABEPPMM [1, 28] | Degree of primary pathogen eradication, evaluation of ABEPP [1, 29] | Degree of primary pathogen eradication, evaluation of ABEPPMM [1, 29] | Degree of primary pathogen eradication, evaluation of ABEPP [1, 30] | Degree of primary pathogen eradication, evaluation of ABEPPMM [1, 30]
+: microbial growth, PA (PP alone) (P. aeruginosa; [43]) | microbial growth, AU (BM alone) (A. ursingii) | microbial growth, BP (BM alone) (B. pumilus) | ATB efficacy [5]
2/8: Number of animals with positive microbial growth on the agar with antibiotics/total number of animals per group ([4]; Liver)

C[C@@H](O)[C@H]1C(=O)N2C(C(=O)O)=C(S[C@@H]3CN[C@H](C(=O)N(C)C)C3)[C@H](C)[C@H]12 [Meropenem]
−: microbial growth, BS (BM alone) (B. sonorensis) | microbial growth, SA (BM alone) (S. anginosus) | microbial growth, MIX (PP + MM) [2, 44]
+: microbial growth, PA (PP alone) (P. aeruginosa; [44]) | microbial growth, EC (BM alone) (E. coli)
